Source: ChEMBL document CHEMBL1255467, “Comparative in vitro antimicrobial activities of torezolid (TR-700), the active moiety of a new oxazolidinone, torezolid phosphate (TR-701), determination of tentative disk diffusion interpretive criteria, and quality control ranges” (2010)

Assays:
Staphylococcus aureus [1] = experiment: Antimicrobial activity against linezolid-resistant Staphylococcus aureus by broth dilution method; assay type: functional
Staphylococcus aureus [2] = experiment: Antimicrobial activity against methicillin-resistant Staphylococcus aureus by broth dilution method; assay type: functional; details: Staphylococcus aureus
Staphylococcus aureus [3] = experiment: Antimicrobial activity against methicillin-susceptible Staphylococcus aureus by broth dilution method; assay type: functional; details: Staphylococcus aureus
Staphylococcus aureus [4] = experiment: Antimicrobial activity against Staphylococcus aureus by broth dilution method; assay type: functional; details: Staphylococcus aureus
Staphylococcus sp. [5] = experiment: Antimicrobial activity against Staphylococcus sp. by broth dilution method; assay type: functional; details: Staphylococcus sp.
Staphylococcus sp. [6] = experiment: Antimicrobial activity against methicillin-resistant coagulase-negative Staphylococcus by broth dilution method; assay type: functional
Staphylococcus aureus [7] = experiment: Antimicrobial activity against vancomycin-nonsusceptible Staphylococcus aureus by broth dilution method; assay type: functional; details: Staphylococcus aureus
Staphylococcus sp. [8] = experiment: Antimicrobial activity against methicillin-susceptible coagulase-negative Staphylococcus by broth dilution method; assay type: functional; details: Staphylococcus sp.
Enterococcus sp. = experiment: Antimicrobial activity against Enterococcus by broth dilution method; assay type: functional; details: Enterococcus sp.
Enterococcus faecalis [9] = experiment: Antimicrobial activity against vancomycin-resistant Enterococcus faecalis by broth dilution method; assay type: functional
Enterococcus faecalis [10] = experiment: Antimicrobial activity against vancomycin-susceptible Enterococcus faecalis by broth dilution method; assay type: functional; details: Enterococcus faecalis
Enterococcus faecium [11] = experiment: Antimicrobial activity against vancomycin-resistant Enterococcus faecium by broth dilution method; assay type: functional
Enterococcus faecium [12] = experiment: Antimicrobial activity against vancomycin-susceptible Enterococcus faecium by broth dilution method; assay type: functional; details: Enterococcus faecium
Streptococcus pneumoniae [13] = experiment: Antimicrobial activity against Streptococcus pneumoniae by broth dilution method; assay type: functional; details: Streptococcus pneumoniae
Streptococcus pneumoniae [14] = experiment: Antimicrobial activity against penicillin-susceptible Streptococcus pneumoniae by broth dilution method; assay type: functional; details: Streptococcus pneumoniae
Streptococcus pneumoniae [15] = experiment: Antimicrobial activity against penicillin-intermediate Streptococcus pneumoniae by broth dilution method; assay type: functional; details: Streptococcus pneumoniae
Streptococcus pneumoniae [16] = experiment: Antimicrobial activity against penicillin-resistant Streptococcus pneumoniae by broth dilution method; assay type: functional
Streptococcus viridans = experiment: Antimicrobial activity against Streptococcus viridans by broth dilution method; assay type: functional
Corynebacterium jeikeium = experiment: Antimicrobial activity against Corynebacterium jeikeium by broth dilution method; assay type: functional
Listeria monocytogenes = experiment: Antimicrobial activity against Listeria monocytogenes by broth dilution method; assay type: functional
Moraxella catarrhalis = experiment: Antimicrobial activity against Moraxella catarrhalis by broth dilution method; assay type: functional
Haemophilus influenzae [17] = experiment: Antimicrobial activity against Haemophilus influenzae by broth dilution method; assay type: functional; details: Haemophilus influenzae
Haemophilus influenzae [18] = experiment: Antimicrobial activity against beta-lactamase negative Haemophilus influenzae by broth dilution method; assay type: functional; details: Haemophilus influenzae
Haemophilus influenzae [19] = experiment: Antimicrobial activity against beta-lactamase positive Haemophilus influenzae by broth dilution method; assay type: functional; details: Haemophilus influenzae
Haemophilus influenzae [20] = experiment: Antimicrobial activity against ampicillin-nonsusceptible beta-lactamase negative Haemophilus influenzae by broth dilution method; assay type: functional; details: Haemophilus influenzae
Streptococcus sp = experiment: Antimicrobial activity against streptococcal sp. by broth dilution method; details: Streptococcus sp.

C[C@H]1COc2c(N3CCN(C)CC3)c(F)cc3c(=O)c(C(=O)O)cn1c23.C[C@H]1COc2c(N3CCN(C)CC3)c(F)cc3c(=O)c(C(=O)O)cn1c23.O [LEVOFLOXACIN]
0.5 µg/mL: MIC50 (Staphylococcus sp. [5]) | MIC90 (Staphylococcus sp. [8])
4 µg/mL: MIC90 (Staphylococcus aureus [3]) | MIC50 (Staphylococcus aureus [4]) | MIC50 (Enterococcus faecium [12])
0.06 µg/mL: MIC50 (Moraxella catarrhalis) | MIC90 (Moraxella catarrhalis)
8 µg/mL: MIC50 (Staphylococcus aureus [2]) | MIC50 (Staphylococcus sp. [6])
0.12 µg/mL: MIC (Haemophilus influenzae [17]) | MIC50 (Haemophilus influenzae [17]) | MIC90 (Haemophilus influenzae [17]) | MIC (Haemophilus influenzae [18]) | MIC50 (Haemophilus influenzae [18]) | MIC90 (Haemophilus influenzae [18]) | MIC (Haemophilus influenzae [19]) | MIC50 (Haemophilus influenzae [19]) | MIC90 (Haemophilus influenzae [19]; read-out: MIC90) | MIC (Haemophilus influenzae [20]) | MIC50 (Haemophilus influenzae [20]) | MIC90 (Haemophilus influenzae [20])
2 µg/mL: MIC90 (Streptococcus viridans)
16 µg/mL: MIC50 (Staphylococcus aureus [7])
1 µg/mL: MIC50 (Enterococcus faecalis [10]) | MIC50 (Streptococcus pneumoniae [13]) | MIC90 (Streptococcus pneumoniae [13]) | MIC50 (Streptococcus pneumoniae [14]) | MIC90 (Streptococcus pneumoniae [14]) | MIC50 (Streptococcus pneumoniae [15]) | MIC90 (Streptococcus pneumoniae [15]) | MIC50 (Streptococcus pneumoniae [16]) | MIC90 (Streptococcus pneumoniae [16]) | MIC50 (Streptococcus viridans) | MIC (Listeria monocytogenes) | MIC50 (Listeria monocytogenes) | MIC90 (Listeria monocytogenes) | MIC50 (Streptococcus sp) | MIC90 (Streptococcus sp)
0.25 µg/mL: MIC50 (Staphylococcus aureus [3]) | MIC50 (Staphylococcus sp. [8])
> 16 µg/mL: MIC50 (Staphylococcus aureus [1]) | MIC90 (Staphylococcus aureus [4]) | MIC90 (Staphylococcus sp. [5]) | MIC90 (Staphylococcus aureus [7]) | MIC50 (Enterococcus sp.) | MIC90 (Enterococcus sp.) | MIC50 (Enterococcus faecalis [9]) | MIC90 (Enterococcus faecalis [10]) | MIC50 (Enterococcus faecium [11]) | MIC90 (Enterococcus faecium [12]) | MIC (Corynebacterium jeikeium) | MIC50 (Corynebacterium jeikeium) | MIC90 (Corynebacterium jeikeium)
